Data taken from US9161910B2, “Method and pharmaceutical compositions for trans-buccal mucosa treatment of postprandial hyperglycaemia in type II diabetes” (priority 2009, dated 2015).
Where two headings read alike, the source gives them in different places.

Assays:
[1] = oral; cited from earlier work
plasma carrier proteins = conditions: cited from earlier work
[2] = cited from earlier work; for solubility in alcohol: alcohol / ethanol
[3] = cited from earlier work; for distribution volume: in vivo
[4] = Complete dissolution in hydroalcoholic solution according to the invention; type: physicochemical; conditions: approximately 50° hydroalcoholic solution
From the text: The term “dissolved in a stable and a complete manner” means a state of dissolution restoring the active principle to the molecular state, slightly ionized in its dissolving medium, the state of dissolution preventing any possibility of inopportune recrystallization.

obese, diabetic patients = conditions: continuous perfusion, 6 weeks; cited from earlier work

CCOc1cc(CC(=O)N[C@@H](CC(C)C)c2ccccc2N2CCCCC2)ccc1C(=O)O [Repaglinide, repaglinide]
inter-individual variability in plasma concentration [1]: 60% | intra-individual variability in plasma concentration [1]: 35% | onset of insulinotropic response after taking [1]: approximately 30 min

CN(C)C(=N)N=C(N)N [Metformin, metformin]
binding to plasma proteins (in words) (plasma carrier proteins): not bound to plasma proteins

N#C[C@@H]1CCCN1C(=O)CNC12CC3CC(CC(O)(C3)C1)C2 [Vildagliptin, vildagliptin]
solubility in organic solvents [2]: soluble in water and organic solvents | solubility in water [2]: soluble in water | bioavailability ([3]; oral): approximately 85%

COc1ccc(Cl)cc1C(=O)NCCc1ccc(S(=O)(=O)NC(=O)NC2CCCCC2)cc1 [glibenclamide]
solubility in alcohol [2]: slightly soluble in ethanol | solubility in water [2]: practically insoluble in water | complete dissolution, amount [4]: 1 mg per 1 mL

glucagon-like peptide-1 [GLP-1]
reduction in postprandial glycemia (obese, diabetic patients): 5.5 mM | reduction of hemoglobin HbAlC (obese, diabetic patients): 1.3%

Cc1ccc(S(=O)(=O)NC(=O)NN2CC3CCCC3C2)cc1 (stereo not drawn) [Gliclazide, gliclazide]
solubility in alcohol [2]: slightly soluble in alcohol | solubility in water [2]: insoluble in water | binding to plasma carrier proteins (plasma carrier proteins): 95% | distribution volume [3]: approximately 30 L | distribution volume ([3]; listed as gliclazide): 30 L | hepatic metabolism (in words) ([3]; oral): extensively metabolized by the first hepatic passage | complete dissolution, amount [4]: 3.5 mg for 0.75 mL

N[C@@H](CC(=O)N1CCn2c(nnc2C(F)(F)F)C1)Cc1cc(F)c(F)cc1F [Sitagliptin, sitagliptin]
solubility in organic solvents [2]: soluble in water and certain organic solvents | solubility in water [2]: soluble in water | binding to plasma proteins (in words) (plasma carrier proteins): bound to plasma proteins | bioavailability ([3]; oral): ~87% | mean distribution volume in the organism ([3]; single dose of 100 mg intravenous): approximately 198 L
